Results taken from ChEMBL document CHEMBL5247625, “Discovery and characterization of novel potent BCR-ABL degraders by conjugating allosteric inhibitor” (Eur J Med Chem, 2022).
The source made the active and inactive calls. The rule behind the calls is not given here.

Key:
U-937 = assay: Antiproliferative activity against human U-937 cells assessed as inhibition of cell growth incubated for 2 days by CCK8 assay; assay type: functional, cell-based; conditions: time 2.0 day
[1] = biological target: T1, Protein cereblon/Tyrosine-protein kinase ABL1/Breakpoint cluster region protein (Homo sapiens, UniProt P00519+P11274+Q96SW2); assay: Protac activity at CRBN/BCR-ABL in human K562 cells assessed as increase in BCR-ABL degradation incubated for 16 hrs by Western blotting analysis; assay type: cell-based
Target sequence in this assay (P00519 whole entry): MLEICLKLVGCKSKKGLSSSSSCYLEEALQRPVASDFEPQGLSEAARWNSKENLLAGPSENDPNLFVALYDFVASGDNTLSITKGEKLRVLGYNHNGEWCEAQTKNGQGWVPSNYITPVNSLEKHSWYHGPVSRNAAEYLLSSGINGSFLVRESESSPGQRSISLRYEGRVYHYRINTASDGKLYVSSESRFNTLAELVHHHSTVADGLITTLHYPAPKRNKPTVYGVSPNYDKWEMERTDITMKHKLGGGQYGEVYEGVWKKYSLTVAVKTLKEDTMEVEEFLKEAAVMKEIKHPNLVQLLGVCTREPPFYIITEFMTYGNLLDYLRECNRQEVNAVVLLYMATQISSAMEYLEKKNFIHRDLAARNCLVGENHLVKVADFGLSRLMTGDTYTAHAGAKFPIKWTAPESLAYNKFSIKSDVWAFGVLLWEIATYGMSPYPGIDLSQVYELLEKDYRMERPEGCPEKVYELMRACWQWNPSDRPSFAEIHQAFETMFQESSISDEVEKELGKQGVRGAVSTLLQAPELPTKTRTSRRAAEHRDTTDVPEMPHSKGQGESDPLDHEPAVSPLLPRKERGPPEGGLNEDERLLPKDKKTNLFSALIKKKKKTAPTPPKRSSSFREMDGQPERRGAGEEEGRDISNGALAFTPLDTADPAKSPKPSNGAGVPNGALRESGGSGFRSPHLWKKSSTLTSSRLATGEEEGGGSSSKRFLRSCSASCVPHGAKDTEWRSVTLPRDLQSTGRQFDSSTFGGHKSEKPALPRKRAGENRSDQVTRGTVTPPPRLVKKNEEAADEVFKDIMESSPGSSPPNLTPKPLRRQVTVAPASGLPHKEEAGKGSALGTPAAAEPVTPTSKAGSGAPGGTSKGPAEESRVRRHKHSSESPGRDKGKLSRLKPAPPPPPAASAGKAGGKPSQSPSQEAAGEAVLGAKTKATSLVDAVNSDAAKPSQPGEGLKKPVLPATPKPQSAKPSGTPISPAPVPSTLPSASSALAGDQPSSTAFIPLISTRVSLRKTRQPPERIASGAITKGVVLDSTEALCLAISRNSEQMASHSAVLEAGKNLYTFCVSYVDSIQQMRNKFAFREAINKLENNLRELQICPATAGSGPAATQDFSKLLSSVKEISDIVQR
Target sequence in this assay (P11274 whole entry): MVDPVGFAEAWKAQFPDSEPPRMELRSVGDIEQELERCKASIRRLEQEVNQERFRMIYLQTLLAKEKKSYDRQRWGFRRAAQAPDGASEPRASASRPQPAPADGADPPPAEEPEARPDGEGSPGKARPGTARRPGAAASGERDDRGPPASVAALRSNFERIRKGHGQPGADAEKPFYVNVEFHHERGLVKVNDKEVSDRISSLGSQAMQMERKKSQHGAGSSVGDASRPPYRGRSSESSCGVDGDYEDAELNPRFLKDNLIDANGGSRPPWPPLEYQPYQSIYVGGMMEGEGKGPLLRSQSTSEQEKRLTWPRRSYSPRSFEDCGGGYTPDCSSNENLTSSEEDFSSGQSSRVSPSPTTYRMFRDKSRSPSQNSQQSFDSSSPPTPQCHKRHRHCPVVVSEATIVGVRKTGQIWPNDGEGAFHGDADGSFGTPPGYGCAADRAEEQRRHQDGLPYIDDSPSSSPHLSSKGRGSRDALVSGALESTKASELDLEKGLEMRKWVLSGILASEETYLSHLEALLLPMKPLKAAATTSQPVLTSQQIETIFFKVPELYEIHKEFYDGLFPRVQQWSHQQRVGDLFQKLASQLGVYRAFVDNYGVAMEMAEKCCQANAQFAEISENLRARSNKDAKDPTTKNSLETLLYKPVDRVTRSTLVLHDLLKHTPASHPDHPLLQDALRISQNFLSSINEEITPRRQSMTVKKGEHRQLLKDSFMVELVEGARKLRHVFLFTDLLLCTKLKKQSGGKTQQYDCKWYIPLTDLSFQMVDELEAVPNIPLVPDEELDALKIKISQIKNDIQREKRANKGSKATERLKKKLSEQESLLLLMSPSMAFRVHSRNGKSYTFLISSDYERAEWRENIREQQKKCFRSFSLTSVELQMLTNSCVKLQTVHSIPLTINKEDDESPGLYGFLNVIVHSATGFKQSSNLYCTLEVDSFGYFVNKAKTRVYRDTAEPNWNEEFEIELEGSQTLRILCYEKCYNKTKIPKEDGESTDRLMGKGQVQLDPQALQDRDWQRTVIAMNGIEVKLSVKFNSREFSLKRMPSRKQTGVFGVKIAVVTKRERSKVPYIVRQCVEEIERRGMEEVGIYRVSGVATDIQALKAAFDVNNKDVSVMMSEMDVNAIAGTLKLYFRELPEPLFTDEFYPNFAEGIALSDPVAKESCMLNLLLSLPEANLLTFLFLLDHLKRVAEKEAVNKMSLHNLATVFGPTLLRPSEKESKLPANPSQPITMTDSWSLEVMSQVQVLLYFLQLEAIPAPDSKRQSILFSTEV
Target sequence in this assay (Q96SW2 whole entry): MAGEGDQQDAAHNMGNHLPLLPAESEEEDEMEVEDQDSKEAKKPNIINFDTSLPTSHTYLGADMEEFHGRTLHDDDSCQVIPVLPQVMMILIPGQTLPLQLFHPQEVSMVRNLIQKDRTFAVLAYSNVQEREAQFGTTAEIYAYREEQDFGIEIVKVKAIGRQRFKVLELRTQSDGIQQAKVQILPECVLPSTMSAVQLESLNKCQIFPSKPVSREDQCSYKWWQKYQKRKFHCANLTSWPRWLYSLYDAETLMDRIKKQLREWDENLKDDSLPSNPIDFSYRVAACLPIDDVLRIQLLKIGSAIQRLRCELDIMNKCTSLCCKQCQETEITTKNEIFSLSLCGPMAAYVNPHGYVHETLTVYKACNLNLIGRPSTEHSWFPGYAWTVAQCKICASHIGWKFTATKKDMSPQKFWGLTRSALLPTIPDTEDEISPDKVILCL

[2] = biological target: T1, Protein cereblon/Tyrosine-protein kinase ABL1/Breakpoint cluster region protein; assay: Protac activity at CRBN/BCR-ABL in human K562 cells assessed as increase in BCR-ABL degradation at 0.3 to 100 nM incubated for 16 hrs by Western blotting analysis relative to control; assay type: cell-based; conditions: dose 0.3-100 nM
Target sequence in this assay (P00519 whole entry, looked up): as the sequence (P00519 whole entry) above
Target sequence in this assay (P11274 whole entry, looked up): as the sequence (P11274 whole entry) above
Target sequence in this assay (Q96SW2 whole entry, looked up): as the sequence (Q96SW2 whole entry) above

[3] = biological target: T2, Signal transducer and activator of transcription 5A (Homo sapiens) (UniProt P42229); assay: Inhibition of STAT5 phosphorylation at Tyr694 residue in human K562 cells at 0.3 to 100 nM incubated for 16 hrs by Western blotting analysis; assay type: cell-based; conditions: dose 0.3-100 nM
T2 sequence (whole entry): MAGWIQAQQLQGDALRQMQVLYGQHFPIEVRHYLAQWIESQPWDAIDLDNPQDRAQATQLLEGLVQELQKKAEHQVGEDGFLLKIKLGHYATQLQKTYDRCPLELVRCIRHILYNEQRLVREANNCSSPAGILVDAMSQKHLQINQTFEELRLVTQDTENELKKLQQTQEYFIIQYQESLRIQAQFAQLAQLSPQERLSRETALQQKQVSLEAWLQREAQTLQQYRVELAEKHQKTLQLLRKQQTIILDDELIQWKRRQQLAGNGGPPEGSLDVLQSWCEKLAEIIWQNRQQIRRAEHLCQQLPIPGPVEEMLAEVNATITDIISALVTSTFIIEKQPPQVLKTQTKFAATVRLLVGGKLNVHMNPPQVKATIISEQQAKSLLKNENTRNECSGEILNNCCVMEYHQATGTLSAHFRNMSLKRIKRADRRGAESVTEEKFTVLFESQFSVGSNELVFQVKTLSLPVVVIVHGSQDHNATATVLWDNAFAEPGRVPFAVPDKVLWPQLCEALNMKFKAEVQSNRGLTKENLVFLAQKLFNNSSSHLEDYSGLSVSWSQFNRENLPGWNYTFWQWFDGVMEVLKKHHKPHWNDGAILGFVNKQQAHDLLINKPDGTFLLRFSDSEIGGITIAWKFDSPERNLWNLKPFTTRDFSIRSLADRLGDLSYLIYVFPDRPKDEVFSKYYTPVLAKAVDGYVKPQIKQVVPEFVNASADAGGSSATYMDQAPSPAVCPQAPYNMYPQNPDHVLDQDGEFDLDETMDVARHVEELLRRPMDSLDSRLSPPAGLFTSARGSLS

[4] = biological target: T1, Protein cereblon/Tyrosine-protein kinase ABL1/Breakpoint cluster region protein; assay: Protac activity at CRBN/BCR-ABL in human K562 cells assessed as induction of BCR-ABL degradation at 100 nM pretreated with lenalidomide for 2 hrs followed by compound addition measured after 8 hrs by Western blotting analysis; assay type: cell-based; conditions: time 10.0 hrs
Target sequence in this assay (P00519 whole entry, looked up): as the sequence (P00519 whole entry) above
Target sequence in this assay (P11274 whole entry, looked up): as the sequence (P11274 whole entry) above
Target sequence in this assay (Q96SW2 whole entry, looked up): as the sequence (Q96SW2 whole entry) above

[5] = biological target: T1, Protein cereblon/Tyrosine-protein kinase ABL1/Breakpoint cluster region protein; assay: Protac activity at CRBN/BCR-ABL in human K562 cells assessed as induction of BCR-ABL degradation at 100 nM pretreated with asciminib for 2 hrs followed by compound addition measured after 8 hrs by Western blotting analysis; assay type: cell-based; conditions: time 10.0 hrs
Target sequence in this assay (P00519 whole entry, looked up): as the sequence (P00519 whole entry) above
Target sequence in this assay (P11274 whole entry, looked up): as the sequence (P11274 whole entry) above
Target sequence in this assay (Q96SW2 whole entry, looked up): as the sequence (Q96SW2 whole entry) above

[6] = biological target: T1, Protein cereblon/Tyrosine-protein kinase ABL1/Breakpoint cluster region protein; assay: Protac activity at CRBN/BCR-ABL in human K562 cells assessed as induction of c-ABL degradation at 100 nM pretreated with lenalidomide for 2 hrs followed by compound addition measured after 8 hrs by Western blotting analysis; assay type: cell-based; conditions: time 10.0 hrs
Target sequence in this assay (P00519 whole entry, looked up): as the sequence (P00519 whole entry) above
Target sequence in this assay (P11274 whole entry, looked up): as the sequence (P11274 whole entry) above
Target sequence in this assay (Q96SW2 whole entry, looked up): as the sequence (Q96SW2 whole entry) above

[7] = biological target: T1, Protein cereblon/Tyrosine-protein kinase ABL1/Breakpoint cluster region protein; assay: Protac activity at CRBN/BCR-ABL in human K562 cells assessed as induction of c-ABL degradation at 100 nM pretreated with asciminib for 2 hrs followed by compound addition measured after 8 hrs by Western blotting analysis; assay type: cell-based; conditions: time 10.0 hrs
Target sequence in this assay (P00519 whole entry, looked up): as the sequence (P00519 whole entry) above
Target sequence in this assay (P11274 whole entry, looked up): as the sequence (P11274 whole entry) above
Target sequence in this assay (Q96SW2 whole entry, looked up): as the sequence (Q96SW2 whole entry) above

[8] = biological target: T1, Protein cereblon/Tyrosine-protein kinase ABL1/Breakpoint cluster region protein; assay: Protac activity at CRBN/BCR-ABL in human K562 cells assessed as induction of BCR-ABL degradation at 100 nM pretreated with MG132 for 2 hrs followed by compound addition measured after 8 hrs by Western blotting analysis; assay type: cell-based; conditions: time 10.0 hrs
Target sequence in this assay (P00519 whole entry, looked up): as the sequence (P00519 whole entry) above
Target sequence in this assay (P11274 whole entry, looked up): as the sequence (P11274 whole entry) above
Target sequence in this assay (Q96SW2 whole entry, looked up): as the sequence (Q96SW2 whole entry) above

[9] = biological target: T1, Protein cereblon/Tyrosine-protein kinase ABL1/Breakpoint cluster region protein; assay: Protac activity at CRBN/BCR-ABL in human K562 cells assessed as increase in BCR-ABL degradation at 100 nM incubated for 6 hrs by Western blotting analysis; assay type: cell-based
[10] = biological target: T1, Protein cereblon/Tyrosine-protein kinase ABL1/Breakpoint cluster region protein; assay: Protac activity at CRBN/BCR-ABL in human K562 cells assessed as increase in BCR-ABL degradation at 100 nM incubated for 6 hrs followed by compound washout measured after 4 hrs by Western blotting analysis; assay type: cell-based
[11] = biological target: T2, Signal transducer and activator of transcription 5A (Homo sapiens); assay: Inhibition of STAT5 phosphorylation at Tyr694 residue in human K562 cells at 100 nM incubated for 6 hrs followed by compound washout measured upto 96 hrs by Western blotting analysis; assay type: cell-based
[12] = biological target: Crk-like protein (Homo sapiens) (UniProt P46109); assay: Inhibition of CRKL phosphorylation at Tyr207 residue in human K562 cells at 100 nM incubated for 6 hrs followed by compound washout measured upto 96 hrs by Western blotting analysis; assay type: cell-based
K562 [13] = assay: Cytotoxicity against human K562 cells assessed as inhibition of cell growth at 100 nM incubated for 6 hrs followed by compound washout measured upto 96 hrs; assay type: functional, cell-based
K562 [14] = assay: Down regulation of IKZF3 expression in human K562 cells at 100 nM measured after 16 hrs by LC-MS analysis; assay type: functional, cell-based
K562 [15] = assay: Down regulation of ZFP91 expression in human K562 cells at 100 nM measured after 16 hrs by LC-MS analysis; assay type: functional, cell-based
[16] = system: Protein cereblon/Tyrosine-protein kinase ABL1/Breakpoint cluster region protein (Mus musculus), P00520+Q6PAJ1+Q8C7D2 [E255V]; assay: Protac activity at CRBN/BCR-ABL E255V mutant in mouse 32D cells assessed as increase in BCR-ABL degradation at 1 to 1000 nM by Western blotting analysis; assay type: cell-based; conditions: dose 1-1000 nM
[17] = system: Protein cereblon/Tyrosine-protein kinase ABL1/Breakpoint cluster region protein (Mus musculus), P00519+P11274+Q8C7D2 [K294E]; assay: Protac activity at CRBN/asciminib resistance BCR-ABL K294E mutant in mouse 32D cells assessed as increase in BCR-ABL degradation at 1 to 1000 nM by Western blotting analysis; assay type: cell-based; conditions: dose 1-1000 nM
[18] = system: Protein cereblon/Tyrosine-protein kinase ABL1/Breakpoint cluster region protein (Mus musculus), P00519+P11274+Q8C7D2 [P223S]; assay: Protac activity at CRBN/asciminib resistance BCR-ABL P223S mutant in mouse 32D cells assessed as increase in BCR-ABL degradation at 1 to 1000 nM by Western blotting analysis; assay type: cell-based; conditions: dose 1-1000 nM
[19] = system: Protein cereblon/Tyrosine-protein kinase ABL1/Breakpoint cluster region protein (Mus musculus), P00519+P11274+Q8C7D2 [F359V]; assay: Protac activity at CRBN/asciminib resistance BCR-ABL F359V mutant in mouse 32D cells assessed as increase in BCR-ABL degradation at 1 to 1000 nM by Western blotting analysis; assay type: cell-based; conditions: dose 1-1000 nM
[20] = system: Protein cereblon/Tyrosine-protein kinase ABL1/Breakpoint cluster region protein (Mus musculus), P00519+P11274+Q8C7D2 [V468F]; assay: Protac activity at CRBN/BCR-ABL V468F mutant in mouse 32D cells assessed as increase in BCR-ABL degradation at 1 to 1000 nM by Western blotting analysis; assay type: cell-based; conditions: dose 1-1000 nM

Sequence of Crk-like protein (Homo sapiens) (P46109 whole entry): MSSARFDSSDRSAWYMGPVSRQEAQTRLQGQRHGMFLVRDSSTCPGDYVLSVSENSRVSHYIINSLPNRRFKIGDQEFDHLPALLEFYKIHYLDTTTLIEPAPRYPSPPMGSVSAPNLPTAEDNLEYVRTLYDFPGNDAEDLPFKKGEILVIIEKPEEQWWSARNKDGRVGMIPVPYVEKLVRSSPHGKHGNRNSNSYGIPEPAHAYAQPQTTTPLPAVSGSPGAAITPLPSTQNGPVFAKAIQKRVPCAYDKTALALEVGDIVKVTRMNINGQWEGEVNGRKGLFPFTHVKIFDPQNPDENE

SMILES: O=C1CCC(N2Cc3c(SCCCCCCN4CCN(C5CCN(c6ncc(C(=O)Nc7ccc(OC(F)(F)Cl)cc7)cc6-c6ccn[nH]6)CC5)CC4)cccc3C2=O)C(=O)N1 (stereo unspecified)
- Activity (U-937): inactive
- DC50 [1]: 2.7 nM
- Emax [2]: 91.2%
- inhibition [3]: Active
- Activity [4]: inactive
- Activity [5]: inactive
- Activity [6]: inactive
- Activity [7]: inactive
- Activity [8]: inactive
- Activity [9]: Active
- Activity [10]: inactive
- inhibition [11]: inactive
- inhibition [12]: inactive
- Activity (K562 [13]): Active
- Activity (K562 [14]): Active
- Activity (K562 [15]): Active
- Activity [16]: Active
- Activity [17]: Active
- Activity [18]: Active
- Activity [19]: Active
- Activity [20]: inactive
